Measured values from US20230416239A1, “COMPOUNDS AND METHODS FOR TREATING A CYTOKINE-MEDIATED DISEASE” (CONSERVATOIRE NATIONAL DES ARTS ET MÉTIERS, priority 2020, published 2023).

Tests used:
TNFa/TNFRI interaction = TNFa/TNFRI interaction (Homo sapiens, UniProt P01375); assay: TNFa/TNFRI interaction displacement test; type: binding; conditions: for Displacement EC50 TNFa in presence of compound: Difference: Compound EC50 minus SPD304 EC50; for Displacement (%): compounds at 50 μM, human TNFRI 100 ng/ml;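 on Displacement EC50 TNFa in presence of compound: Difference: SPD304 reference at 20 µM final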
Sequence of TNFa/TNFRI interaction (P01375 77-233 limits assumed): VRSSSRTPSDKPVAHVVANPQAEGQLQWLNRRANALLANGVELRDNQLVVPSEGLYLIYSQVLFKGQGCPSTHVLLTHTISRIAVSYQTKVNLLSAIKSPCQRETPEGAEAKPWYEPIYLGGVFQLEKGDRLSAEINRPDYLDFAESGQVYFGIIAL
Experimental: Microtiter plates (96 wells) are covered with 100 μl per well of human TNFRI, at a concentration of 100 ng/ml, then incubated overnight at 4° C. The following day, after two washes in PBS/Tween20, the plates are saturated with 150 μl of PBS/BSA 2% for 2 h at 37° C.
100 μl of each mixture are then transferred to the microtiter plate, respecting the established plate plan and incubated overnight at 4° C.
After three washes, 100 μl of biotinylated anti-cytokine secondary antibody are added to each well and incubated for 2 h at 37° C. After three washes, 100 Avl Avidin-HRP (dilution 1/500th) are added and incubated for 30 minutes at 37° C. […] The plates are then read with a spectrophotometer at 450 nm, measuring the optical density (OD) for each well.

IL-6 = IL-6 (Homo sapiens, UniProt P05231); assay: Immunoassay binding test, IL-6 (gp130 receptor, IL-6Ra present); conditions: IL-6Ra 200 ng/ml
Sequence of IL-6 (P05231 30-212, species assumed): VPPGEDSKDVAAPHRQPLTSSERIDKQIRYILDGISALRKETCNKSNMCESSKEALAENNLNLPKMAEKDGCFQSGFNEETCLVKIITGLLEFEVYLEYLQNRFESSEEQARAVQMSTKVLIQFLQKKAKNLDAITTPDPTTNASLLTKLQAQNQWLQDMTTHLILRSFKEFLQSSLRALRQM
Experimental: (§1) Microtiter plates (96 wells) are covered with 100 μl of receptor per well, and incubated overnight at 4° C. The following day, after 2 washes in PBS/Tween20, the plates are saturated with 150 μl of PBS/BSA 2% per well, for 2 h at 37° C. Synthetic compounds are diluted in series (final concentrations: 100 to 0.78 μM) then a fixed amount of cytokine in PBS/BSA 1% is added to the compounds, in a final volume of 120 μl per well. […] The cytokine is diluted in series (six concentrations) in a final volume of 120 μl per well. The cytokine is used in the absence of small molecule as well as the range of SPD304 as positive controls and the absence of cytokine and synthetic molecule as negative control. The different mixtures are incubated for 2 h at 37° C. 100 μl of each mixture are then transferred to the microtiter plate, respecting the plate plan previously defined and incubated overnight at 4° C. After three washes, 100 μl of biotinylated anti-cytokine secondary antibody are added to each well, then incubated for 2 h at 37° C. After three washes, 100 μl of Avidin-HRP (1/500th dilution) are added and incubated for 30 minutes at 37° C. […] The plates are then read with a spectrophotometer at 450 nm, measuring the optical density for each well.
(§2) This binding test is carried out with different cytokines: TNFa, IL-4, IL-6 and IL-13. For IL-6, the incubation of molecules with the cytokine also requires the presence of IL-6Ra at a final concentration of 200 ng/ml.
(§3) The final concentrations used for each of the cytokines are presented below: […]

TNFα = TNFα (Homo sapiens, UniProt P01375); assay: Immunoassay binding test, TNFa; conditions: compounds 100 to 0.78 μM; TNFα 10 ng/ml, receptor 100 ng/ml; read-out: BINDING TNF IC50
Sequence of TNFα (P01375 77-233 limits assumed, species assumed): as the sequence (P01375 77-233 limits assumed) above
Experimental: as §1, with “C.” for “C. Synthetic compounds are diluted in series (final concentrations: 100 to 0.78 μM) then a fixed amount of cytokine in PBS/BSA 1% is added to the compounds, in a final volume of 120 μl per well.”, “The cytokine is used in the absence of small molecule as well as the range of SPD304 as positive controls and the absence of cytokine and synthetic molecule as negative control.” left out
as §2, §3

IL-13 = IL-13 (Homo sapiens, UniProt P35225); assay: Immunoassay binding test, IL-13; conditions: for IC50: IL-13 400 ng/ml, receptor 100 ng/ml, read-out: BINDING IL13 IC50
Sequence of IL-13 (P35225 25-146, species assumed): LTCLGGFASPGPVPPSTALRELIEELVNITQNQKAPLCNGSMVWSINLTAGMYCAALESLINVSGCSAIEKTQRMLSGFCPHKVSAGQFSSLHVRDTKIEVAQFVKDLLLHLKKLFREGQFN
Experimental: as §1, with “The cytokine is used in the absence of small molecule as well as the range of SPD304 as positive controls and the absence of cytokine and synthetic molecule as negative control.” left out
as §2, §3

IL-4 = target: T1, IL-4 (Homo sapiens, UniProt P05112); assay: Immunoassay binding test, IL-4; conditions: for IC50: IL-4 400 ng/ml, receptor 100 ng/ml, read-out: BINDING IL4 IC50
T1 sequence (P05112 25-153): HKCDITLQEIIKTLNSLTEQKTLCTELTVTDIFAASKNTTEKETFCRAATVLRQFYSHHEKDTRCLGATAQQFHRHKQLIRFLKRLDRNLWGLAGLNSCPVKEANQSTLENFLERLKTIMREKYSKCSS
Experimental: as §1, §2, §3

SMILES	Displacement EC50 TNFa in presence of compound: Difference (TNFa/TNFRI interaction)	Displacement (%) (TNFa/TNFRI interaction)	BINDING IL6 % Neutra at 100 μM (IL-6)	IC50 (TNFα)	BINDING IL13 % Neutra at 100 μM (IL-13)	IC50 (IL-13)	BINDING IL4 % Neutra at 100 μM (IL-4)	IC50 (IL-4)
O=S(=O)(c1ccccc1)n1cc(CN(CCCNC2CCCCC2)Cc2ccncc2)c2ccccc21 [Compound 8]	10.9 ng/mL	168%	3.3%	12.2 µM	81.7%	> 50 µM	98.1%	5.3 µM
CN(CCCN(Cc1cccnc1)Cc1cn(S(=O)(=O)c2ccccc2)c2ccccc12)C1CCCCC1 [Compound 9]	4.3 ng/mL	175%	21%	7.3 µM	59.7%	> 50 µM	94.4%	8 µM
FC(F)(F)c1cccc(-n2cc(CN(CCCNC3CCCCC3)Cc3cccnc3)c3ccccc32)c1 [Compound 10]		121%	10.7%	23 µM	91.1%	> 50 µM	96.4%	5.5 µM
CN(CCCN(Cc1ccncc1)Cc1cn(S(=O)(=O)c2ccccc2)c2ccccc12)C1CCCCC1 [Compound 11]		215%	−3%	4.4 µM	90.2%	> 50 µM	97.6%	6.2 µM
FC(F)(F)c1cccc(-n2cc(CN(CCCNC3CCCCC3)Cc3ccncc3)c3ccccc32)c1 [Compound 12]	14.2 ng/mL	172%	1.6%	6.8 µM	58.2%	> 50 µM	96.3%	12.3 µM
CN(CCCN(Cc1cccnc1)Cc1cn(-c2cccc(C(F)(F)F)c2)c2ccccc12)C1CCCCC1 [Compound 13]	6.4 ng/mL	186%	8.9%	4.3 µM	85.2%	> 50 µM	97.9%	5 µM
CN(CCCN(Cc1ccncc1)Cc1cn(-c2cccc(C(F)(F)F)c2)c2ccccc12)C1CCCCC1 [Compound 14]		149%	2.8%	11.8 µM	91.2%	> 50 µM	98.4%	5.3 µM
O=S(=O)(c1ccccc1)n1cc(CN(CCCCNC2CCCCC2)Cc2cccnc2)c2ccccc21 [Compound 15]	5.1 ng/mL	167%	11.5%	8.1 µM	94.8%	> 50 µM	99%	6.3 µM
O=S(=O)(c1ccccc1)n1cc(CN(CCCCNC2CCCCC2)Cc2ccncc2)c2ccccc21 [Compound 16]	4.7 ng/mL	165%	15.7%	5.4 µM	88.2%	> 50 µM	99.5%	4.8 µM
CN(CCCCN(Cc1cccnc1)Cc1cn(S(=O)(=O)c2ccccc2)c2ccccc12)C1CCCCC1 [Compound 17]		133%	20.7%	1.1 µM	87.7%	> 50 µM	97.9%	5 µM
CN(CCCCN(Cc1ccncc1)Cc1cn(S(=O)(=O)c2ccccc2)c2ccccc12)C1CCCCC1 [Compound 18]	Difference = 6 ng/ml	145%	16.3%	2.2 µM	94.2%	80.9 µM	98.4%	5.3 µM
O=S(=O)(c1ccccc1)n1cc(CN(Cc2ccnc(F)c2)CC2CCCN(C3CCCCC3)C2)c2ccccc21 (stereo not shown) [Compound 19]	9.9 ng/mL	169%	12.6%	10.9 µM	98.1%	> 50 µM	99%	6.3 µM
Fc1cc(CN(Cc2cn(-c3cccc(C(F)(F)F)c3)c3ccccc23)CC2CCCN(C3CCCCC3)C2)ccn1 (stereo not shown) [Compound 20]		88%	18.5%	19.7 µM	97.5%	6.2 µM	99.5%	4.8 µM
FC(F)(F)c1cccc(-n2cc(CN(CCCCNC3CCCCC3)Cc3cccnc3)c3ccccc32)c1 [Compound 21]	4.9 ng/mL	141%	3.7%	14.1 µM	94.6%	19.5 µM	98%	2.1 µM
FC(F)(F)c1cccc(-n2cc(CN(CCCCNC3CCCCC3)Cc3ccncc3)c3ccccc32)c1 [Compound 22]		120%	-1.3%	16.9 µM	95.2%	> 50 µM	98.4%	4.1 µM
CN(CCCCN(Cc1cccnc1)Cc1cn(-c2cccc(C(F)(F)F)c2)c2ccccc12)C1CCCCC1 [Compound 23]	5.5 ng/mL	140%	5.6%	9.3 µM	85.8%	> 50 µM	98.1%	4.9 µM
CN(CCCCN(Cc1ccncc1)Cc1cn(-c2cccc(C(F)(F)F)c2)c2ccccc12)C1CCCCC1 [Compound 24]	6.3 ng/mL	158%	3.6%	13.5 µM	85.3%	> 50 µM	98.8%	3.1 µM
